{"source": "patent US20050209157A1", "about": "“Short bioactive peptides and methods for their use” (priority 2001, published 2005)", "test_system": "human leukocyte (WBC) cells", "test": "Stimulation and proliferation of leukocytes, Alamar Blue", "type": "cell-based", "details": "compared to untreated positive control cells; Alamar Blue", "note": "No end group written: not given here."}
{"substance": "MPKWKVFKKIEKVGRNIRNGIVKAGPAIAVLGEAKALG-NH2 [P12, reference compound]", "values": [{"measurement": "stimulatory and/or inhibitory action on growth of human leukocyte (WBC) cells", "result": "stimulatory (and/or proliferative) at all concentrations through 500 μg/ml"}]}
